Where two headings read alike, the source gives them in different places.
Key:
[1] = tested on: insulin receptor (IR) phosphorylation (PTP1B-mediated) in HEK293T/17 cells; assay: ELISA of insulin receptor (IR) phosphorylation in HEK293T/17 cells; type: cell-based; conditions: 3% DMSO, 10 minutes, starved HEK293T/17 cells, vs 3% DMSO control
From the text: Analysis of PTP1B inhibition in HEK293TCells. We prepared HEK293T/17 cells for an enzyme-linked immunosorbent assay (ELISA) by growing them in 75 cm^2 culture flasks (Corning) with DMEM media supplemented with 10% FBS, 100 units/ml penicillin, and 100 units/ml streptomycin. We replaced the media every day for 3-5 days until the cells reached 80-100% confluency.
We measured the influence of inhibitors on insulin receptor (IR) phosphorylation by using an IR-specific ELISA (FIG. 35). Briefly, we starved cells for 48 hours in FBS-free media and incubated the with inhibitors (all at 3% DMSO) for 10 minutes. After incubation, we lysed cells with lysis buffer (9803, Cell Signaling Technology) supplemented with 1× halt phosphatase inhibitor cocktail and 1× halt protease inhibitor cocktail (Thermo Fisher Scientific) for 10 min, pelleted the cell debris, and used the lysis buffer to dilute each sample to 60 mg/ml total protein. We measured IR phosphorylation in subsequent dilutions of the 60 mg/ml samples with the PathScan® Phospho-Insulin Receptor β (panTyr) Sandwich ELISA Kit (Cell Signaling Technology; #7082).
Statistical analysis and reproducibility. We determined statistical significance (FIG. 23H) with a two-tailed Student's t-test (details in TABLE 14), and we used an F-test to compare one- and two-parameter models of inhibition (TABLE 12).

[2] = molecular target: T1, PTP1B (Homo sapiens, UniProt P18031); assay: X-ray crystallography of PTP1B soaked with ligand; type: binding, H. sapiens
T1 construct: In this study, we used a well-studied truncation variant (i.e., PTP1B1-321); His-tag; made in house; host or cells: E. coli BL21 (DE3), pET21b
T1 sequence (P18031 1-321): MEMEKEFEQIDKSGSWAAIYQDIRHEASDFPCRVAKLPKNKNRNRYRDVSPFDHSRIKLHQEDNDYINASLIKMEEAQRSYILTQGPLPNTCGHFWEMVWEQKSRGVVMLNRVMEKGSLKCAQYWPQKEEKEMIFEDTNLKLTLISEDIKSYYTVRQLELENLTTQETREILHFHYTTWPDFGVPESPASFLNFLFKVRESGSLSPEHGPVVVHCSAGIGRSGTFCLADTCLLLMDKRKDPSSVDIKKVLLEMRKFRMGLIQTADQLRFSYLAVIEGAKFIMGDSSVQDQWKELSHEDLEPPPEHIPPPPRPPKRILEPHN
Description: X-ray crystallography. We prepared crystals of PTP1B by using hanging drop vapor diffusion. In brief, we added 2 μL of PTP1B (~600 μM PTP1B, 50 mM HEPES, pH 7.3) to 6 μL of crystallization solution (100 mM HEPES, 200 mM magnesium acetate, and 14% polyethylene glycol 8000, pH 7.5) and incubated the resulting droplets over crystallization solution for one week at 4° C. (EasyXtal CrystalSupport, Qiagen). We soaked crystals with ligand by transferring them to droplets formed with 6 μL of crystallization solution and 1 μL of ligand solution (10 mM in DMSO), which we incubated for 2-5 days at 4° C. We prepared all […] for freezing by soaking them in cryoprotectant formed from a 70/30 (v/v) mixture of buffer (100 mM HEPES, 200 mM magnesium acetate, and 25% polyethylene glycol 8000, pH 7.5) and glycerol.
We collected X-ray diffraction data through the Collaborative Crystallography Program at Lawrence Berkeley National Lab (ALS ENABLE, beamline 8.2.1, 100 K, 1.00003 Å). We performed integration, scaling, and merging of X-ray diffraction data using the xia2 software package^79, and we carried out molecular replacement and structure refinement with the PHENIX graphical interface,^80 supplemented with manual model adjustment in COOT^81 and one round of PDB-REDO^82 (the latter, only for the PTP1B-AD complex).

[3] = molecular target: T2, PTP1B (PTP1B1-321) (Homo sapiens, UniProt P18031); assay: PTP1B-catalyzed hydrolysis of pNPP in the presence of terpenoids (enzyme kinetics, IC50 from best-fit models); type: biochemical, H. sapiens; conditions: for Ki: PTP1B1-321; for IC50: 15 mM pNPP, 10% DMSO
T2 construct: His-tag; made in house; host or cells: E. coli BL21 (DE3), pET21b
T2 sequence (P18031 1-321): T1 sequence (P18031 1-321)
Description: Enzyme kinetics. To examine terpenoid-mediated inhibition, PTP1B-catalyzed hydrolysis of p-nitrophenyl phosphate (pNPP) was measured in the presence of various concentrations of terpenoids. Each reaction included PTP1B ([…]), pNPP (0.33, 0.67, 2, 5, 10, and 15 mM), inhibitors (110 μM, 50 μM, and 15 μM for amorphadiene; 100 μM, 50 μM, and 16.7 μM for taxadiene), and buffer (50 mM HEPES pH=7.5, 0.5 mM TCEP, 50 μg/ml BSA, 10% DMSO). The formation of p-nitrophenol was monitored by measuring absorbance at 405 nm every 10 seconds for 5 minutes on a Spectramax M2 plate reader.
Kinetic models were evaluated in three steps: (i) Initial-rate measurements collected in the absence and presence of inhibitors were fitted to Michaelis-Menten and inhibition models, respectively (here, the nlinfit and fminsearch functions from MATLAB were used). (ii) An F-test was used to compare the mixed model to the single-parameter model with the least sum squared error (here, the fcdf function from MATLAB was used to assign p-values), and the mixed model was accepted when p<0.05.
The MATLAB function “nlparci” was used to determine the confidence intervals of kinetic parameters, and those intervals were propagated to estimate corresponding confidence on IC50's.
Enzyme kinetics. To examine terpenoid-mediated inhibition, we measured PTP-catalyzed hydrolysis of p-nitrophenyl phosphate (pNPP) or 4-methylumbelliferyl phosphate (4-MUP, used when KM for pNPP was large) in the presence of various concentrations of terpenoids. Each reaction included PTP (0.05 μM PTP1B/TCPTP or 0.1 μM SHP1/SHP2 in 50 mM HEPES, 0.5 mM TCEP, 50 μg/ml BSA), pNPP (0.33, 0.67, 2, 5, 10, and 15 mM) or 4-MUP (0.13, 0.27, 0.8, 2.27, 2.93, 4.53, 7.07, and 8 mM), inhibitor (with concentrations listed in the figures), buffer (50 mM HEPES pH=7.3, 50 μg/ml BSA), and DMSO at 10% v/v. We monitored the formation of p-nitrophenol by measuring absorbance at 405 nm every 10 seconds for 5 minutes on a SpectraMax M2 plate reader and the formation of 4-methylumbelliferyl by measuring fluorescence at 450 nm (370 nm ex, 435 nm cutoff, medium gain).
We used a custom MATLAB script to process all raw kinetic data. This script removed all concentration values that fell outside of either (i) the range of our standard curve (absorbance/fluorescence vs. μM; FIG. 39) or (ii) the initial rate regime (>10% of the pNPP or 4-MUP concentration used in the assay). When this step reduced kinetic dataset to fewer than ten points, we re-measured those datasets to collect at least ten. We fit final datasets, in turn, with a linear regression model (using Matlab's backslash operator).
We evaluated kinetic models in three steps: (i) We fit initial-rate measurements collected in the absence and presence of inhibitors to Michaelis-Menten and inhibition models, respectively (here, we used the nlinfit and fminsearch functions from MATLAB; TABLE 12). (ii) We used an F-test to compare the mixed model to the single-parameter model with the least sum squared error (here, we used the fedf function from MATLAB to assign p-values), and we accepted the mixed model when p<0.05.

[4] = competitive model of inhibition, read-out: Fit par. Ki, competitive model
[5] = mixed model, uncompetitive constant, read-out: Fit par. Ki,u, mixed model
[6] = noncompetitive model of inhibition, read-out: Fit par. Ki, noncompetitive model
[7] = uncompetitive model of inhibition, read-out: Fit par. Ki, uncompetitive model

SMILES	IR phosphorylation (ELISA signal) ([1]; 405 μM)	IR phosphorylation (ELISA signal) ([1]; 405 μM, listed as ABOL)	solubility (crystal soaking experiments) [2]	Ki [3, 4] [µM]	Ki [3, 5] [µM]	Ki [3, 6] [µM]	Ki [3, 7] [µM]	IC50 ([3]; Example 1, HEPES pH 7.5) [µM]	model (mode) of PTP1B inhibition from Michaelis-Menten fits ([3]; pNPP initial rates)	IC50 ([3]; Example 2, HEPES pH 7.3, ± 95% confidence interval) [µM]	Ki ([3]; mixed model, competitive constant, read-out: Fit par. Ki,c, mixed model) [µM]	IR phosphorylation (ELISA signal) ([1]; 930 μM)	IR phosphorylation (ELISA signal) ([1]; 930 μM, listed as DHA)
CC(C)=CCC[C@](C)(O)[C@@H]1CC=C(C)CC1 [α-bisabolol, reference compound]	reduction in signal	reduced signals	soluble	178	469	541	469	–	–	–	–	–	–
CC1=CCC[C@@]2(C)CCC3=C(C)CC[C@@H](C[C@H]12)C3(C)C [taxadiene]	–	–	–	–	–	–	–	119	mixed inhibition	–	–	–	–
CC1=C[C@@H]2C(=C(C)CC[C@H]2C(C)C)CC1 [(+)-1 (10),4-cadinadiene]	–	–	–	14.8	169	190	168	–	–	165 ± 33	5690	–	–
CC1=C[C@H]2[C@@H](CC1)[C@H](C)CC[C@H]2[C@@H](C)C(=O)O [dihydroartemisinic acid, reference compound]	–	–	–	178	469	541	469	–	–	–	–	reduction in signal	reduced signals

From patent publication US12729458B2, “Discovery and evolution of biologically active metabolites” (The Regents of the University of Colorado, a Body Corporate, priority 2020, dated 2026)
